From ChEMBL document CHEMBL3046079, “Synthesis, herbicidal activity, and mode of action of IR 5790” (J Agric Food Chem, 2001)

What was measured:
[1] = Toxicity in po dosed Rattus norvegicus (rat); type: organism-based; details: in vivo
Oryza sativa = test: Phytotoxicity against Oryza sativa (rice) assessed as injury at 150 g/ha applied as post-emergent treatment at 15 days post-sowing measured after 15 days relative to control; type: organism-based; details: in vivo, other, 360 h
Setaria viridis = test: Post-emergence herbicidal activity against Setaria viridis (green foxtail) assessed as injury at 150 g/ha applied at 15 days post-sowing measured after 15 days relative to control; type: functional
Sida spinosa = test: Pre-emergence herbicidal activity against Sida spinosa assessed as injury at 50 g/ha applied at 24 hr post-sowing measured after 28 days relative to control; type: functional
Papaver rhoeas [2] = test: Pre-emergence herbicidal activity against Papaver rhoeas assessed as injury at 50 g/ha applied at 24 hr post-sowing measured after 28 days relative to control; type: functional
Ipomoea purpurea [3] = test: Pre-emergence herbicidal activity against Ipomoea purpurea (common morning-glory) assessed as injury at 50 g/ha applied at 24 hr post-sowing measured after 28 days relative to control; type: functional
Calystegia sepium [4] = test: Pre-emergence herbicidal activity against Calystegia sepium assessed as injury at 50 g/ha applied at 24 hr post-sowing measured after 28 days relative to control; type: functional
Ammi majus [5] = test: Pre-emergence herbicidal activity against Amni maius assessed as injury at 50 g/ha applied at 24 hr post-sowing measured after 28 days relative to control; type: functional
Beta vulgaris [6] = test: Phytotoxicity against Beta vulgaris assessed as injury at 150 g/ha applied as pre-emergent treatment at 24 hr post-sowing measured after 28 days relative to control; type: organism-based; details: in vivo, other, 672 h
Triticum aestivum = test: Phytotoxicity against Triticum aestivum (wheat) assessed as injury at 150 g/ha applied as pre-emergent treatment at 24 hr post-sowing measured after 28 days relative to control; type: organism-based; details: in vivo, other, 672 h
Glycine max [7] = test: Phytotoxicity against Glycine max (soybean) assessed as injury at 150 g/ha applied as pre-emergent treatment at 24 hr post-sowing measured after 28 days relative to control; type: organism-based; details: in vivo, other, 672 h
Zea mays = test: Phytotoxicity against Zea mays (maize) assessed as injury at 150 g/ha applied as pre-emergent treatment at 24 hr post-sowing measured after 28 days relative to control; type: organism-based; details: in vivo, other, 672 h
Brassica napus = test: Phytotoxicity against Brassica napus (oilseed rape) assessed as injury at 50 g/ha applied as pre-emergent treatment at 24 hr post-sowing measured after 28 days relative to control; type: organism-based; details: in vivo, other, 672 h
Digitaria sanguinalis [8] = test: Pre-emergence herbicidal activity against Digitaria sanguinalis (hairy crabgrass) assessed as injury at 50 g/ha applied at 24 hr post-sowing measured after 28 days relative to control; type: functional
Chenopodium album [9] = test: Post-emergence herbicidal activity against Chenopodium album assessed as injury at 150 g/ha applied at 15 days post-sowing measured after 15 days relative to control; type: functional
Abutilon theophrasti [10] = test: Post-emergence herbicidal activity against Abutilon theophrasti (velvetleaf) assessed as injury at 150 g/ha applied at 15 days post-sowing measured after 15 days relative to control; type: functional
Digitaria sanguinalis [11] = test: Post-emergence herbicidal activity against Digitaria sanguinalis (hairy crabgrass) assessed as injury at 150 g/ha applied at 15 days post-sowing measured after 15 days relative to control; type: functional
Solanum nigrum [12] = test: Post-emergence herbicidal activity against Solanum nigrum (black nightshade) assessed as injury at 150 g/ha applied at 15 days post-sowing measured after 15 days relative to control; type: functional
Abutilon theophrasti [13] = test: Post-emergence herbicidal activity against Abutilon theophrasti (velvetleaf) assessed as injury at 50 g/ha applied at 15 days post-sowing measured after 15 days relative to control; type: functional
Beta vulgaris [14] = test: Phytotoxicity against Beta vulgaris assessed as injury at 150 g/ha applied as post-emergent treatment at 15 days post-sowing measured after 15 days relative to control; type: organism-based; details: in vivo, other, 360 h
Portulaca oleracea = test: Post-emergence herbicidal activity against Portulaca oleracea assessed as injury at 5 g/ha applied at 15 days post-sowing measured after 15 days relative to control; type: functional
Ipomoea purpurea [15] = test: Post-emergence herbicidal activity against Ipomoea purpurea (common morning-glory) assessed as injury at 5 g/ha applied at 15 days post-sowing measured after 15 days relative to control; type: functional
Chenopodium album [16] = test: Post-emergence herbicidal activity against Chenopodium album assessed as injury at 5 g/ha applied at 15 days post-sowing measured after 15 days relative to control; type: functional
Glycine max [17] = test: Phytotoxicity against Glycine max (soybean) assessed as injury at 15 g/ha applied as post-emergent treatment at 15 days post-sowing measured after 15 days relative to control; type: organism-based; details: in vivo, other, 360 h
Alopecurus myosuroides = test: Post-emergence herbicidal activity against Alopecurus myosuroides assessed as injury at 15 g/ha applied at 15 days post-sowing measured after 15 days relative to control; type: functional
Solanum nigrum [18] = test: Post-emergence herbicidal activity against Solanum nigrum (black nightshade) assessed as injury at 15 g/ha applied at 15 days post-sowing measured after 15 days relative to control; type: functional
Ipomoea purpurea [19] = test: Post-emergence herbicidal activity against Ipomoea purpurea (common morning-glory) assessed as injury at 15 g/ha applied at 15 days post-sowing measured after 15 days relative to control; type: functional
Calystegia sepium [20] = test: Post-emergence herbicidal activity against Calystegia sepium assessed as injury at 15 g/ha applied at 15 days post-sowing measured after 15 days relative to control; type: functional
Papaver rhoeas [21] = test: Pre-emergence herbicidal activity against Papaver rhoeas assessed as injury at 150 g/ha applied at 24 hr post-sowing measured after 28 days relative to control; type: functional
Geranium dissectum = test: Pre-emergence herbicidal activity against Geranium dissectum assessed as injury at 150 g/ha applied at 24 hr post-sowing measured after 28 days relative to control; type: functional
Capsella bursa-pastoris [22] = test: Pre-emergence herbicidal activity against Capsella bursa-pastoris assessed as injury at 150 g/ha applied at 24 hr post-sowing measured after 28 days relative to control; type: functional
Ammi majus [23] = test: Pre-emergence herbicidal activity against Amni maius assessed as injury at 150 g/ha applied at 24 hr post-sowing measured after 28 days relative to control; type: functional
Glycine max [24] = test: Phytotoxicity against Glycine max (soybean) assessed as injury at 50 g/ha applied as post-emergent treatment at 15 days post-sowing measured after 15 days relative to control; type: organism-based; details: in vivo, other, 360 h
Amaranthus retroflexus = test: Pre-emergence herbicidal activity against Amaranthus retroflexus assessed as injury at 150 g/ha applied at 24 hr post-sowing measured after 28 days relative to control; type: functional
Persicaria maculosa = test: Post-emergence herbicidal activity against Persicaria maculosa assessed as injury at 50 g/ha applied at 15 days post-sowing measured after 15 days relative to control; type: functional
Galium aparine = test: Post-emergence herbicidal activity against Galium aparine assessed as injury at 50 g/ha applied at 15 days post-sowing measured after 15 days relative to control; type: functional
Chenopodium album [25] = test: Post-emergence herbicidal activity against Chenopodium album assessed as injury at 50 g/ha applied at 15 days post-sowing measured after 15 days relative to control; type: functional
Capsella bursa-pastoris [26] = test: Post-emergence herbicidal activity against Capsella bursa-pastoris assessed as injury at 50 g/ha applied at 15 days post-sowing measured after 15 days relative to control; type: functional

C#CCOc1cc(-n2nc(C(C)(C)C)sc2=O)c(Cl)cc1Cl
LD50 [1]: > 4000 mg/kg | Activity (Oryza sativa): 0% | Activity (Setaria viridis): 70% | Activity (Sida spinosa): 0% | Activity (Papaver rhoeas [2]): 70% | Activity (Ipomoea purpurea [3]): 0% | Activity (Calystegia sepium [4]): 0% | Activity (Ammi majus [5]): 0% | Activity (Beta vulgaris [6]): 10% | Activity (Triticum aestivum): 0% | Activity (Glycine max [7]): 0% | Activity (Zea mays): 0% | Activity (Brassica napus): 0% | Activity (Digitaria sanguinalis [8]): 70% | Activity (Chenopodium album [9]): 90% | Activity (Abutilon theophrasti [10]): 90% | Activity (Digitaria sanguinalis [11]): 70% | Activity (Solanum nigrum [12]): 90% | Activity (Abutilon theophrasti [13]): 70% | Activity (Beta vulgaris [14]): 90% | Activity (Portulaca oleracea): 50% | Activity (Ipomoea purpurea [15]): 50% | Activity (Chenopodium album [16]): 10% | Activity (Glycine max [17]): 0% | Activity (Alopecurus myosuroides): 0% | Activity (Solanum nigrum [18]): 10% | Activity (Ipomoea purpurea [19]): 90% | Activity (Calystegia sepium [20]): 50% | Activity (Papaver rhoeas [21]): 90% | Activity (Geranium dissectum): 0% | Activity (Capsella bursa-pastoris [22]): 90% | Activity (Ammi majus [23]): 0% | Activity (Glycine max [24]): 10% | Activity (Amaranthus retroflexus): 90% | Activity (Persicaria maculosa): 90% | Activity (Galium aparine): 30% | Activity (Chenopodium album [25]): 90% | Activity (Capsella bursa-pastoris [26]): 10%
